# Test results published in patent US20100260680A1, “NOVEL BONE MASS INCREASING AGENT” (ORIENTAL YEAST CO., LTD., priority 2007, published 2010).
# Bridges are numbered along the chain shown (N, C = ends). Where no end group is shown, it is not given here.
# T1: RANKL (Homo sapiens, UniProt O14788)
# T1 sequence (O14788 140-317 limits assumed): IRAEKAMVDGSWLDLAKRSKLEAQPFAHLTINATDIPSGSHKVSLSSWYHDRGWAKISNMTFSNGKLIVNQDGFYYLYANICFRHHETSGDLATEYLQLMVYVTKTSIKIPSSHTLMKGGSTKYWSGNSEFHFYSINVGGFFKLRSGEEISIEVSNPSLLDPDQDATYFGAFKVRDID
# B1: BMPR-IA: BMPR-IA (R&D), BMP antagonist (protein, UniProt P36894 24-152, looked up)
# extracellular domain: QNLDSMLHGTGMKSDSDQKKSENGVTLAPEDTLPFLKCYCSGHCPDDAINNTCITNGHCFAIIEEDDQGETTLASGCMKYEGSDFQCKDSPKAQLRRTIECCRTNLCNQYLQPTLPPVVIGPFFDGSIR
# modifications: extracellular domain soluble reagent
# notes: BMPR-IA (R&D), BMP antagonist
# B2: Dkk-1: rhDkk-1 (R&D), Wnt antagonist (protein, UniProt O94907 32-266, looked up)
# Dickkopf-related protein 1: TLNSVLNSNAIKNLPPPLGGAAGHPGSAVSAAPGILYPGGNKYQTIDNYQPYPCAEDEECGTDEYCASPTRGGDAGVQICLACRKRRKRCMRHAMCCPGNYCKNGICVSSDQNHFRGEIEETITESFGNDHSTLDGYSRRTTLSSKMYHTKGQEGSVCLRSSDCASGLCCARHFWSKICKPVLKEGQVCTKHRRKGSHGLEIFQRCYCGEGLSCRIQKDHHQASNSSRLHTCQRH
# Tests used:
# MC3T3-E1 cells = test: ALP activity determination in MC3T3-E1 cells; format: cell-based, mouse; settings: for inhibition of ALP activity enhancement caused by BMP-2: 100 ng/ml BMP-2; for inhibition of ALP activity enhancement caused by peptide D: 200 μM peptide D
# Experimental: Seven days after differentiation, the culture supernatant was removed from each plate and the cells were fixed with an acetone/ethanol solution. The ALP activity was determined using p-nitrophenyl phosphate as a substrate. Specifically, a carbonate buffer (5 mM MgCl2, 50 mM NaHCO3) containing p-nitrophenyl phosphate (Nacalai) (1 mg/mL) was added to each well (100 μL/well), followed by incubation at 37° C. Then, the OD value at 405 nm was determined with the use of a microplate reader (BMG Labtech) for each well.
# Cells mixed with 10% FBS+αMEM (GIBCO) were seeded on a 96-well plate (8×10^3 cells/well) and a 48-well plate (2×10^4 cells/well). The culture supernatant of each plate was replaced with 10% FBS+αMEM containing 5 mM β glycerophosphoric acid (SIGMA)+10 μg/mL sodium ascorbate (SIGMA) 48 hours later. Then, the medium was replaced with new medium every 3 or 4 days. As a control, MC3T3-E1 was cultured with the use of 10% FBS+αMEM as a maintenance medium. Upon medium replacement, a peptide was added to each plate at a concentration of 300 μM, ALP activity determination and alizarin red S staining were carried out by the method described in Example 1 on Days 7 and 21.
# MC3T3-E1 cells mixed with 10% FBS+αMEM (SIGMA) were seeded on a 96-well plate (1.5×10^4 cells/well). After 12 hours, the medium was removed therefrom and a medium containing an SB203580 p38 inhibitor (Calbiochem) was added thereto. […] Then, ALP activity determination was carried out by the method described in Example 1.
# Similarly, rhDkk-1 (R&D) was added as a Wnt antagonist at concentrations of 0.25, 0.5, and 1 μg/ml. After 1 hour, 200 μM peptide D was added thereto, followed by culture for 5 days. Then, ALP activity determination was carried out by the method described in Example 1.
# In addition, as described above, BMPR-IA (R&D) was added as a BMP antagonist at concentrations of 0.25 and 1 μg/ml. […] Then, ALP activity determination was carried out by the method described in Example 1. […] Based on the above results, it was likely that actions of peptide D depend on BMP induction or BMP produced constantly and spontaneously by cells.
# MC3T3-E1 cells mixed with 10% FBS+α MEM (SIGMA) were seeded on a 96-well plate (1.5×10^4 cells/well).
# Further, peptide D and peptide E were compared with each other in terms of ALP activity enhancement actions in MC3T3-E1 cells. Peptide D and peptide E were used at concentrations of 25, 50, 100, and 200 μM for culture under the conditions described in Example 14, followed by determination of ALP activity by the method described in Example 1.
# MC3T3-E1 cells (mouse osteoblast precursor cells) mixed with 10% FBS+αMEM (SIGMA) were seeded on a 96-well plate (2×10^4 cells/well). After cell adhesion, the medium was removed therefrom, followed by ALP activity determination in the cases involving the addition of 50 and 150 μM peptide D (acetate and hydrochloride). […] On Day 5 after the addition of the individual factors, the culture supernatant was removed, followed by ALP activity determination by the method described in Example 1.
# MC3T3-E1 cells (mouse osteoblast precursor cells) mixed with 10% FBS+αMEM (SIGMA) were seeded on a 96-well plate (2×10^4 cells/well). After cell adhesion had taken place, the medium was removed therefrom, followed by determination of ALP activity in the cases involving the mixing of 5 ng/mLBMP-2 (produced by CHO cells) with 6.25, 12.5, 25, 50, and 100 μM synthetic peptide D. On Day 5 after the addition of the individual factors, the culture supernatant was removed, followed by ALP activity determination by the method described in Example 1.
# At the end of the experiment, synergistic effects of synthetic peptide D in the form of acetate and BMP-4 (R&D) were also examined. MC3T3-E1 cells (mouse osteoblast precursor cells) mixed with 10% FBS+αMEM (SIGMA) were seeded on a 96-well plate (2×10^4 cells/well). […]
# C57BL/6N mice = test: RANKL administration test, bone morphology measurement; format: in vivo, mouse
# Experimental: GST-RANKL was intraperitoneally administered at 57 nmol (low dose) or at 426 nmol (high dose) to 7-week-old female C57BL/6N mice (10 individuals) every 24 hours for three times. The mice were dissected 1.5 hours after the third administration. For comparison, a group to which PBS had been administered was used as a control.
# The following organs were collected from each dissected mouse: femur, tibia, cerebrum, lungs, heart, liver, thymus, spleen, kidneys, and skin. Naturally occurring lesions were observed by HE staining of the cerebrum, the lungs, the heart, the liver, the thymus, the spleen, the kidneys, and the skin.
# RANKL = biological target: T1, RANKL; settings: Aoki et al., J Clin Invest 116: 1525, 2006; cited from earlier work
# RAW264 cells = test: TRAP activity in RAW264 cells with GST-RANKL; format: cell-based
# Experimental: Peptide E (SEQ ID NO: 16) was prepared from peptide D with the substitution of a single amino acid. TRAP activity and ALP activity were determined to compare peptide D and peptide E in terms of effects of causing osteoclast differentiation and osteoblast differentiation. RAW264 cells mixed with 10% FBS+αMEM (SIGMA) were seeded on a 96-well plate (2×10^3 cells/well). After confirmation of cell adhesion, the medium was replaced with 10% FBS+αMEM containing 10 nM GST-RANKL (Oriental Yeast Co., Ltd.). Peptide D and peptide E were separately added thereto at concentrations of 25, 50, 100, and 200 μM, followed by culture for 4 days. After the termination of culture, 100 μL acetone/ethanol was added to each well for cell fixation, followed by drying in a draft for 30 min.
# In order to obtain a TRAP solution buffer at a concentration of 1.5 mg/mL, a solution was prepared by adjusting p-nitrophenyl phosphate (Nacalai) with 50 mM citric acid buffer and adding a 0.2 M sodium tartrate solution in a volume 1/10 that of citric acid buffer. The obtained TRAP solution buffer was added to each well in an amount of 100 μL followed by incubation at 37° C. for 45 min. Then, a 1N NaOH solution (50 μL) was added thereto to terminate the reaction. The OD value at 405 nm was determined for each well with a microplate reader (BMG Labtech) in the same manner as in Example 1.
# RAW264 cells mixed with 10% FBS+αMEM (SIGMA) were seeded on a 96-well plate (2×10^3 cells/well). After cell adhesion had taken place, the medium was replaced with 10% FBS+αMEM containing 5 nM GST-RANKL (Oriental Yeast Co., Ltd.). Peptide D in the form of TFA, peptide D in the form of acetate, and peptide D in the form of hydrochloride with concentrations of 25 and 100 μM were separately added thereto, followed by culture for 4 days. After the completion of culture, acetone/ethanol (100 μL) was added to each well for cell fixation, followed by drying in a draft for 30 min. TRAP activity determination was carried out by the method described in Example 16. […] Peptide D in the form of hydrochloride was confirmed to have neither osteoblast differentiation activity nor osteoclastgenesis inhibition activity. However, peptide D in the form of acetate was confirmed to have higher osteoblast differentiation activity and lower osteoclastgenesis inhibition activity compared with peptide D in the form of TFA. […] It is also possible to produce modified peptide D having osteoblast differentiation activity alone or modified peptide D having osteoclastgenesis inhibition activity alone.
# [1] = high dose 426 nmol i.p. every 24 hours, three times
# [2] = compared at concentrations with almost comparable effects
molecule,measurement,setting,value
"C[S+]([O-])c1ccc(-c2nc(-c3ccncc3)c(-c3ccc(F)cc3)[nH]2)cc1 (centres unmarked) [SB203580, reference compound]",inhibition of ALP activity enhancement caused by BMP-2,"MC3T3-E1 cells; SB203580 1 μM, 5 days",significant inhibition of ALP activity enhancement was not observed
same,inhibition of ALP activity enhancement caused by peptide D,"MC3T3-E1 cells; SB203580 1 μM, 5 days",Significant inhibition
same,inhibition of ALP activity enhancement caused by peptide D,"MC3T3-E1 cells; SB203580 10 μM, 5 days",complete inhibition
same,inhibition of ALP activity enhancement caused by BMP-2,"MC3T3-E1 cells; SB203580 at a concentration of 10, 5 days",weak effects of inhibition
"Fc fusion peptide A: fusion protein of peptide A (SEQ ID NO: 47, YCAAAAACY) and Fc; negative control [reference compound]",ALP activity,"MC3T3-E1 cells; concentrated COS-1 culture supernatant diluted with αMEM, Day 5",such ALP activity enhancement action was not observed
GST-RANKL: GST fusion protein with amino acids 140 to 317 of human RANKL (SEQ ID NO: 15),inhibition of synergistic ALP activity enhancement of peptide D (acetate) and BMP-2,"MC3T3-E1 cells; 100 nM, 100 μM peptide D acetate + 5 ng/mL BMP-2, Day 5",significantly inhibited synergistic effects
same,"HE staining of cerebrum, lungs, heart, liver, thymus, spleen, kidneys, skin","C57BL/6N mice; any group (57 nmol, 426 nmol)",abnormal findings and naturally occurring lesions were not observed
same,osteoclast number,C57BL/6N mice; [1],increased
same,trabecular number,C57BL/6N mice; [1],approximately 50%
same,unit bone mass,C57BL/6N mice; [1],approximately 50%
same,osteoblast surface area,C57BL/6N mice; high-dose administration,significantly increased
same,femur bone morphology by μCT,C57BL/6N mice; high-dose administration group,significant bone decrease
same,unit bone mass and trabecular number,"C57BL/6N mice; low dose 57 nmol i.p. every 24 hours, three times",no such decrease was observed
"peptide E: SEQ ID NO: 16, prepared from peptide D with the substitution of a single amino acid; cyclic, Cys2-Cys8 disulfide (YCWSQNLCY; disulfide 2-8)",affinity to sRANKL relative to the initial level (peptide D),RANKL,approximately ⅓
same,TRAP activity,"RAW264 cells; 25, 50, 100 and 200 μM, 10 nM GST-RANKL, 4 days",inhibit TRAP activity
same,TRAP activity inhibition actions relative to the initial level (peptide D),RAW264 cells; [2],one-half
same,ALP activity,"MC3T3-E1 cells; 25, 50, 100 and 200 μM, 5 days",enhance ALP activity in a concentration-dependent manner
same,ALP activity enhancement actions relative to the initial level (peptide D),MC3T3-E1 cells; [2],approximately ¼
B1,inhibition of ALP activity enhancement caused by peptide D and BMP-2,"MC3T3-E1 cells; BMPR-IA 0.25 and 1 μg/ml, 200 μM peptide D or 200 ng/ml BMP-2, 5 days",significantly inhibit
B2,inhibition of ALP activity enhancement caused by peptide D,"MC3T3-E1 cells; rhDkk-1 0.25, 0.5 and 1 μg/ml, 5 days",weakly but significantly inhibit
